In patent US10301267B2, “Compounds” (AstraZeneca AB, priority 2006, dated 2019) one finds IC50 data, which are given here for 26 molecules.

In general, IC50 refers to the concentration needed to halve the response being measured. A higher IC50 goes with a need for much substance.

Chain of FGFR1 active kinase (P11362 22-822): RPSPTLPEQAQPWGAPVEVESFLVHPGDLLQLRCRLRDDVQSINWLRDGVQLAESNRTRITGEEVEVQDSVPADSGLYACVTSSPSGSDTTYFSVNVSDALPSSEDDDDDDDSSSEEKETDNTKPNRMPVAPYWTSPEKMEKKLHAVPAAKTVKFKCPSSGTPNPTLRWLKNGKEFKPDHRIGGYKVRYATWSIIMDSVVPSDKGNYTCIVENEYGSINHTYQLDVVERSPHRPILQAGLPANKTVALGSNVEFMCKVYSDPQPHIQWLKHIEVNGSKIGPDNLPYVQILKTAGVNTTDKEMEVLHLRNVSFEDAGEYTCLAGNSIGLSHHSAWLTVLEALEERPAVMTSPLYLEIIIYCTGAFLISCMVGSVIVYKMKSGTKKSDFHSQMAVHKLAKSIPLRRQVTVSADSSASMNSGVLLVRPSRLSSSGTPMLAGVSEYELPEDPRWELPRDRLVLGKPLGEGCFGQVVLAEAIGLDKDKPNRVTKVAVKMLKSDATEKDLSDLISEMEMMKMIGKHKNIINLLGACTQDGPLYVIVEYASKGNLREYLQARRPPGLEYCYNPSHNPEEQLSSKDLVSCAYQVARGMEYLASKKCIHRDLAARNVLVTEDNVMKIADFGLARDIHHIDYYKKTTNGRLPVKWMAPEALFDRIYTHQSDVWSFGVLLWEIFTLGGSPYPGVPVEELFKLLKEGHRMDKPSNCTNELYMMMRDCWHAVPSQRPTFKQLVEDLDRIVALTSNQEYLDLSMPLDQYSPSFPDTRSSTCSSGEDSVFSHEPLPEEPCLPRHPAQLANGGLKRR

For this assay, the target named is FGFR1 active kinase (Homo sapiens, UniProt P11362). As to the kind of experiment: FGFR Kinase assay - Caliper Echo Dosing. The format is biochemical. The settings on record: FGFR1 7.2 nM, 408 uM ATP, acoustic dosing; geometric mean of n. As to the method:
FGFR Kinase Assay—Caliper Echo Dosing
To determine inhibition of FGFR activity, kinase assays were conducted using Caliper technology.
Kinase activity assays were performed in Greiner 384-well low volume plates, with a total reaction volume of 12 ul per well. Final concentration of FGFR1 active kinase in each reaction well was 7.2 nM. The substrate for each assay was a custom peptide with fluorescent tag (13 amino acids in length, […] with the fluorescene tag on the first K).
Compounds were dispensed directly in to assay plates using a Labcyte Echo 550 acoustic droplet ejection unit. Each well received 120 nl of DMSO containing compound such that the final concentration of compound in the assay prior to the addition of the stop solution ranged between 30 uM and 30 pM. In addition to compounds each plate carried maximum and minimum control wells, the max wells contained 120 nl of DMSO and the min wells contained 120 nl of 10 mM staurosporine (LC Laboratories, MA 01801, USA Catalogue No. S-9300). The Enzyme (at 7.2 nM [final]) and Substrate (at 3.6 uM [final]) were added separately to the compound plates, in reaction buffer [comprising: 50 mM MOPS (Sigma, Catalogue No. M1254)—pH 6.5, 0.004% Triton (Sigma, Catalogue No. X-100), 2.4 mM DTT, 12 mM MgCl2, 408 uM ATP] resulting in a final DMSO concentration in the reaction mix of 1%.
Assay plates were incubated at room temperature for 1.5 h, before the reaction was stopped with the addition of buffer [comprising: 100 mM HEPES—pH7.5, 0.033% Brij-35 (Sigma Catalogue No. B4184), 0.22% Caliper Coating Reagent #3 (Caliper Life Sciences Catalogue No. 760050), 88 mM EDTA, 5% DMSO]. Stopped assay plates were then read using the Caliper LabChip® LC3000 (which uses microfludics to measure a shift in mobility between fluorescent labelled peptide and the FGFR1 kinase—phosphorylated form of this peptide).
In the assay, compounds were tested at a range of concentrations. […] Percentage inhibition at 1 uM, as expressed herein, is a calculated value based on the curve fit that was generated experimentally. From the fitted curve plot, the effect of compound at a concentration of 1 uM was calculated as a percentage inhibition. The IC50 is the concentration of compound, which inhibits FGFR1 kinase activity by 50% in the context of this assay. This value is calculated using a standard curve fitting software package Origin™.
The molecule `CCN1CCCN(c2ncc(C(=O)Nc3cc(CCc4cc(OC)cc(OC)c4)n[nH]3)cn2)CC1` [Example 171, N-[5-[2-(3,5-dimethoxyphenyl)ethyl]-2H-pyrazol-3-yl]-2-(4-ethyl-1,4-diazepan-1-yl)pyrimidine-5-carboxamide] displayed an IC50 of 9.2 nM.

Regarding `COc1cc(CCc2cc(NC(=O)c3ccc(C4CCN(C5CC5)CC4)cc3)[nH]n2)cc(OC)c1` [Example 99, 4-(1-Cyclopropylpiperidin-4-yl)-N-[5-[2-(3,5-dimethoxyphenyl)ethyl]-2H-pyrazol-3-yl]benzamide], the IC50 came out at 0.91 nM. The result for `CCN(CC)C1CCN(c2cnc(C(=O)Nc3cc(CCc4cc(OC)cc(OC)c4)n[nH]3)cn2)C1` (centres unmarked) [Example 158, 5-(3-diethylaminopyrrolidin-1-yl)-N-[5-[2-(3,5-dimethoxyphenyl)ethyl]-2H-pyrazol-3-yl]pyrazine-2-carboxamide] reads 2.9 nM; that for `COc1cc(COc2cc(NC(=O)c3ccc(N4CCN5CCCC5C4)cc3)[nH]n2)cc(OC)c1` (centres unmarked) [Example 104, 4-(3,4,6,7,8,8a-hexahydro-1H-pyrrolo[2,1-c]pyrazin-2-yl)-N-[5-[(3,5-dimethoxyphenyl)methoxy]-2H-pyrazol-3-yl]benzamide], 1.3 nM; that for `COc1cc(COc2cc(NC(=O)c3cnc(N4C[C@@H](C)N(CC#N)[C@@H](C)C4)cn3)[nH]n2)cc(OC)c1` [Example 131, 5-[(3R,5S)-4-(cyanomethyl)-3,5-dimethylpiperazin-1-yl]-N-[5-[(3,5-dimethoxyphenyl)methoxy]-2H-pyrazol-3-yl]pyrazine-2-carboxamide], 3.5 nM.

The molecule `COc1cc(CCc2cc(NC(=O)c3ccc(N4CC(C)N(C)C(C)C4)cc3)n[nH]2)cc(OC)c1` (centres unmarked) [Example 96, N-[5-[2-(3,5-Dimethoxyphenyl)ethyl]-1H-pyrazol-3-yl]-4-(3,4,5-trimethylpiperazin-1-yl)benzamide] came in with an IC50 of 0.54 nM.

As to `COc1cc(COc2cc(NC(=O)c3cnc(N4CCN(C5CC5)CC4)nc3)[nH]n2)cc(OC)c1` [Example 133, 2-(4-cyclopropylpiperazin-1-yl)-N-[5-[(3,5-dimethoxyphenyl)methoxy]-2H-pyrazol-3-yl]pyrimidine-5-carboxamide], 3.9 nM corresponded to half-maximal inhibition (IC50). The result for `COc1cc(CCc2cc(NC(=O)c3cnc(N4CCN5CCCCC5C4)nc3)[nH]n2)cc(OC)c1` (centres unmarked) [Example 127, 2-(1,3,4,6,7,8,9,9a-octahydropyrido[2,1-c]pyrazin-2-yl)-N-[5-[2-(3,5-dimethoxyphenyl)ethyl]-2H-pyrazol-3-yl]pyrimidine-5-carboxamide] reads 2.9 nM; that for `COc1cc(CCc2cc(NC(=O)c3cnc(N4CCN5CCCC5C4)nc3)[nH]n2)cc(OC)c1` (centres unmarked) [Example 128, 2-(3,4,6,7,8,8a-hexahydro-1H-pyrrolo[2,1-c]pyrazin-2-yl)-N-[5-[2-(3,5-dimethoxyphenyl)ethyl]-2H-pyrazol-3-yl]pyrimidine-5-carboxamide], 3 nM. The result for `COCC1CN(c2ncc(C(=O)Nc3cc(CCc4cc(OC)cc(OC)c4)n[nH]3)cn2)CCN1` (centres unmarked) [Example 160, N-[5-[2-(3,5-dimethoxyphenyl)ethyl]-2H-pyrazol-3-yl]-2-[3-(methoxymethyl)piperazin-1-yl]pyrimidine-5-carboxamide] reads 4.3 nM; that for `CCN1CCN(c2ccc(C(=O)Nc3cc(OCc4cc(OC)cc(OC)c4)n[nH]3)cc2)CC1` [Example 179, N-[5-[(3,5-dimethoxyphenyl)methoxy]-2H-pyrazol-3-yl]-4-(4-ethylpiperazin-1-yl)benzamide], 0.68 nM. The result for `CCN1CCN(c2ncc(C(=O)Nc3cc(CCc4cc(OC)cc(OC)c4)n[nH]3)cn2)CC1C` (centres unmarked) [Example 143, N-[5-[2-(3,5-dimethoxyphenyl)ethyl]-2H-pyrazol-3-yl]-2-(4-ethyl-3-methylpiperazin-1-yl)pyrimidine-5-carboxamide] reads 2.7 nM; that for `COc1cc(CCc2cc(NC(=O)c3cnc(C4=CCN(C)CC4)cn3)[nH]n2)cc(OC)c1` [Example 153, N-[5-[2-(3,5-dimethoxyphenyl)ethyl]-2H-pyrazol-3-yl]-5-(1-methyl-3,6-dihydro-2H-pyridin-4-yl)pyrazine-2-carboxamide], 0.82 nM.

`COc1cc(CCc2cc(NC(=O)c3cnc(N4CCN5CCCCC5C4)cn3)[nH]n2)cc(OC)c1` (centres unmarked) [Example 105, 5-(1,3,4,6,7,8,9,9a-Octahydropyrido[2,1-c]pyrazin-2-yl)-N-[5-[2-(3,5-dimethoxyphenyl)ethyl]-2H-pyrazol-3-yl]pyrazine-2-carboxamide] gave a half-inhibitory concentration (IC50) of 130 nM.

On to `COc1cc(CCc2cc(NC(=O)c3cnc(N4CCN(C5CC5)CC4)nc3)[nH]n2)cc(OC)c1` [Example 126, 2-(4-cyclopropylpiperazin-1-yl)-N-[5-[2-(3,5-dimethoxyphenyl)ethyl]-2H-pyrazol-3-yl]pyrimidine-5-carboxamide], for which the IC50 worked out at 3.6 nM.

Regarding `COc1cc(CCc2cc(NC(=O)c3cnc(N4CCCN(C5CC5)CC4)nc3)[nH]n2)cc(OC)c1` [Example 177, 2-(4-cyclopropyl-1,4-diazepan-1-yl)-N-[5-[2-(3,5-dimethoxyphenyl)ethyl]-2H-pyrazol-3-yl]pyrimidine-5-carboxamide], the IC50 stood at 7.3 nM. The result for `COc1cc(CCc2cc(NC(=O)c3cnc(N4CCN(C5CC5)CC4)cn3)[nH]n2)cc(OC)c1` [Example 113, 5-(4-Cyclopropylpiperazin-1-yl)-N-[5-[2-(3,5-dimethoxyphenyl)ethyl]-2H-pyrazol-3-yl]pyrazine-2-carboxamide] reads 2.3 nM. As for `COc1cc(CCc2cc(NC(=O)c3ccc(N4CCN5CCCC5C4)s3)[nH]n2)cc(OC)c1` (centres unmarked) [Example 120, 5-(3,4,6,7,8,8a-hexahydro-1H-pyrrolo[2,1-c]pyrazin-2-yl)-N-[5-[2-(3,5-dimethoxyphenyl)ethyl]-2H-pyrazol-3-yl]thiophene-2-carboxamide], the figure is 0.98 nM; as for `COc1cc(COc2cc(NC(=O)c3ccc(N4CCN5CCCC5C4)s3)[nH]n2)cc(OC)c1` (centres unmarked) [Example 121, 5-(3,4,6,7,8,8a-hexahydro-1H-pyrrolo[2,1-c]pyrazin-2-yl)-N-[5-[(3,5-dimethoxyphenyl)methoxy]-2H-pyrazol-3-yl]thiophene-2-carboxamide], 0.79 nM. As for `COc1cc(COc2cc(NC(=O)c3ccc(C4CCN(C)CC4)cc3)[nH]n2)cc(OC)c1` [Example 103, N-[5-[(3,5-dimethoxyphenyl)methoxy]-2H-pyrazol-3-yl]-4-(1-methylpiperidin-4-yl)benzamide], the figure is 0.94 nM; as for `COc1cc(COc2cc(NC(=O)c3ccc(N4CCN(C5CC5)CC4)cc3)[nH]n2)cc(OC)c1` [Example 116, 4-(4-cyclopropylpiperazin-1-yl)-N-[5-[(3,5-dimethoxyphenyl)methoxy]-2H-pyrazol-3-yl]benzamide], 0.93 nM; as for `COc1cc(COc2cc(NC(=O)c3ccc(N4CCNC(C)(C)C4)cc3)[nH]n2)cc(OC)c1` [Example 111, N-[5-[(3,5-dimethoxyphenyl)methoxy]-2H-pyrazol-3-yl]-4-(3,3-dimethylpiperazin-1-yl)benzamide], 0.76 nM.

In turn, `COc1cc(CCc2cc(NC(=O)c3cnc(N4C[C@@H](C)N(CC#N)[C@@H](C)C4)cn3)[nH]n2)cc(OC)c1` [Example 129, 5-[(3R,5S)-4-(cyanomethyl)-3,5-dimethylpiperazin-1-yl]-N-[5-[2-(3,5-dimethoxyphenyl)ethyl]-2H-pyrazol-3-yl]pyrazine-2-carboxamide] displayed an IC50 of 3.5 nM. The result for `COc1cc(COc2cc(NC(=O)c3ccc(N4C[C@@H](C)N(C)[C@@H](C)C4)cc3)[nH]n2)cc(OC)c1` [Example 110, N-[5-[(3,5-dimethoxyphenyl)methoxy]-2H-pyrazol-3-yl]-4-[(3R,5S)-3,4,5-trimethylpiperazin-1-yl]benzamide] reads 0.68 nM. As to `COc1cc(COc2cc(NC(=O)c3ccc(N4CCN(C)C(C)C4)cc3)[nH]n2)cc(OC)c1` (centres unmarked) [Example 101, N-[5-[(3,5-dimethoxyphenyl)methoxy]-2H-pyrazol-3-yl]-4-(3,4-dimethylpiperazin-1-yl)benzamide], the IC50 was 21 nM. The result for `COc1cc(CCc2cc(NC(=O)c3ccc(N4C[C@@H](C)N(C)[C@@H](C)C4)cc3)[nH]n2)cc(OC)c1` [Example 155, N-[5-[2-(3,5-dimethoxyphenyl)ethyl]-2H-pyrazol-3-yl]-4-[(3R,5S)-3,4,5-trimethylpiperazin-1-yl]benzamide] reads 0.45 nM.
